Results on 17 compounds are retold here after the supplement of paper PMC4862054.

The subject of one experiment is BT-474. The experiment can be described thus: normalised response (% of control), CellTiter-Glo; higher = more viable cells (100 = DMSO, 0 = benzethonium chloride kill control). To be noted: incubation time: 72 h. The procedure, abridged:
(§1)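 Breast cancer cell lines were exposed for 72 h in 384-well plates to compound at 5 concentrations, 10-fold apart, covering a 10,000-fold range fixed for each compound. Plates were read for CellTox Green fluorescence and CellTiter-Glo luminescence and normalised to 0.1 % DMSO (100) and a positive kill control (0). Each value is the normalised signal at one concentration of the series.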
A general note: ATP-based viability assays read luminescence as a measure of living cells.

Another experiment has as its system BT-549. The experiment is described as above. As to conditions: incubation time: 72 h. The procedure, abridged:
as §1

For experiment [1], the system named is CAL-85-1. The description is as above. To be noted: incubation time: 72 h. The procedure, abridged:
as §1

The test system of a further experiment is MCF-10A. Described as above. As to conditions: incubation time: 72 h. The procedure, abridged: as §1
Another experiment has as its system MDA-MB-436. The experiment is described as above. To be noted: incubation time: 72 h. The procedure, abridged: as §1
Another experiment deals with MDA-MB-468. Described as above. To be noted: incubation time: 72 h. The procedure, abridged:
as §1

Another experiment concerns CAL-148. To be noted: 72 h. The procedure, abridged: (§2)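 EC50 is the value from a fitted percent-inhibition dose-response curve, censored at the highest concentration, and rows with zero drug sensitivity score were not kept. The underlying assay seeded breast cancer cell lines in 20 µl onto 384-well plates pre-loaded with compound in 5 µl medium for 72 h. Viability was then read by CellTiter-Blue fluorescence at 560/590 nm after 2 h at 37 °C, with each plate normalised to vehicle and a positive kill control.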

Experiment [2] deals with CAL-85-1. To be noted: 72 h. The procedure, abridged: as §2
Another experiment deals with DU-4475. To be noted: 72 h. The procedure, abridged: as §2
The test system of the next experiment is MDA-MB-453. To be noted: 72 h. The procedure, abridged: as §2

For `CC(C)C[C@H](NC(=O)[C@@H](COC(C)(C)C)NC(=O)[C@H](Cc1ccc(O)cc1)NC(=O)[C@H](CO)NC(=O)[C@H](Cc1c[nH]c2ccccc12)NC(=O)[C@H](Cc1cnc[nH]1)NC(=O)[C@@H]1CCC(=O)N1)C(=O)N[C@@H](CCCNC(=N)N)C(=O)N1CCC[C@H]1C(=O)NNC(N)=O` [Goserelin] (10000 nM), the normalised response with BT-474 stood at 92.6%; in the experiment on BT-549, 101%; in the experiment with CAL-85-1 [1] it was 93.8%; in the experiment with MCF-10A, 100%; in the experiment with MDA-MB-436 it was 97.7%; with MDA-MB-468, 93.7%.
Take `CO[C@@]12[C@H](COC(N)=O)C3=C(C(=O)C(C)=C(N)C3=O)N1C[C@@H]1N[C@@H]12` [Mitomycin C] (10000 nM): the normalised response in the experiment on BT-474 was 69.5%; in the experiment with BT-549 it was 15%; with CAL-85-1 [1], 57%; in the experiment on MCF-10A it was 73%; in the experiment with MDA-MB-436, 41.7%; with MDA-MB-468 it was 22.5%.
Regarding `C=CCn1c(=O)c2cnc(Nc3ccc(N4CCN(C)CC4)cc3)nc2n1-c1cccc(C(C)(C)O)n1` [MK1775] (10000 nM), the normalised response with BT-474 worked out at 29.4%; in the experiment with BT-549, 6.99%; in the experiment on CAL-85-1 [1] it was 11.4%; in the experiment with MCF-10A it was 19%; with MDA-MB-436, 15.8%; in the experiment on MDA-MB-468 it was 6.6%.
As for `Cc1cn(-c2cc(NC(=O)c3ccc(C)c(Nc4nccc(-c5cccnc5)n4)c3)cc(C(F)(F)F)c2)cn1` [Nilotinib] (10000 nM), the normalised response with BT-474 was 94.7%; in the experiment on BT-549, 61.2%; in the experiment on CAL-85-1 [1] it was 104%; with MCF-10A it was 99.4%; with MDA-MB-436, 106%; with MDA-MB-468, 101%.
On to `CCNC(=O)CCC/C=C\C[C@@H]1[C@@H](/C=C/[C@@H](O)CCc2ccccc2)[C@H](O)C[C@@H]1O` [Bimatoprost] (5500 nM), for which the normalised response with BT-474 came out at 95%; with BT-549, 102%; with CAL-85-1 [1], 91.1%; with MCF-10A, 90.3%; with MDA-MB-436, 104%; with MDA-MB-468, 91.6%.
For `COc1ccc(S(=O)(=O)Nc2cccnc2Nc2ccc(O)cc2)cc1` [ABT-751] (10000 nM), the normalised response in the experiment on BT-474 stood at 53.8%; with BT-549, 40.3%; with CAL-85-1 [1], 40.9%; with MCF-10A, 59.8%; in the experiment with MDA-MB-436 it was 26.8%; in the experiment on MDA-MB-468, 29.2%.
Turning to `COc1c2occc2cc2ccc(=O)oc12` [Methoxsalen], the “EC50, CellTiter-Blue viability” value in the experiment on CAL-148 is 6.36 µM; in the experiment on CAL-85-1 [2], 9.05 µM; with DU-4475, 6.86 µM; in the experiment with MDA-MB-453, 7.9 µM.
In the case of `C/C(=C\c1csc(C)n1)[C@@H]1C[C@@H]2O[C@]2(C)CCC[C@H](C)[C@H](O)[C@@H](C)C(=O)C(C)(C)[C@@H](O)CC(=O)N1` [Ixabepilone] (1000 nM), the normalised response is 41.9% in the experiment with BT-474; 20.8% in the experiment on BT-549; 26.1% in the experiment on CAL-85-1 [1]; 95.6% in the experiment with MCF-10A; 103% in the experiment on MDA-MB-436; 23% in the experiment on MDA-MB-468.
Regarding `Nc1ccn([C@@H]2O[C@H](CO)[C@@H](O)C2(F)F)c(=O)n1` [Gemcitabine] (1000 nM), the normalised response was found to be 74.2% with BT-474; 44.7% with BT-549; 40.5% in the experiment with CAL-85-1 [1]; 65.8% in the experiment with MCF-10A; 30.7% with MDA-MB-436; 22.1% with MDA-MB-468.
Take `O=C(CCCCCCC(=O)Nc1ccccc1)NO` [Vorinostat] (10000 nM): the normalised response with BT-474 worked out at 17.3%; in the experiment with BT-549, 47.7%; in the experiment with CAL-85-1 [1], 44.2%; in the experiment with MCF-10A it was 43.3%; in the experiment with MDA-MB-436 it was 52.2%; with MDA-MB-468 it was 22%.
Take `Cn1cc(C2=C(c3cn(C4CCN(Cc5ccccn5)CC4)c4ccccc34)C(=O)NC2=O)c2ccccc21` [Enzastaurin]: the “EC50, CellTiter-Blue viability” value was 0.024 µM in the experiment with CAL-148 and 0.408 µM in the experiment on MDA-MB-453.
In the case of `CC(C)(C)NC(=O)[C@H]1CC[C@H]2[C@@H]3CC[C@H]4NC(=O)C=C[C@]4(C)[C@H]3CC[C@]12C` [Finasteride] (10000 nM), the normalised response in the experiment with BT-474 was 96.5%; in the experiment on BT-549, 91.7%; in the experiment with CAL-85-1 [1], 96.5%; with MCF-10A, 110%; with MDA-MB-436, 108%; with MDA-MB-468 it was 102%.
On to `CC(O)(CS(=O)(=O)c1ccc(F)cc1)C(=O)Nc1ccc(C#N)c(C(F)(F)F)c1` (stereo unspecified) [Bicalutamide] (10000 nM), for which the normalised response was found to be 108% with BT-474; 94.2% in the experiment with BT-549; 101% in the experiment with CAL-85-1 [1]; 107% in the experiment on MCF-10A; 114% with MDA-MB-436; 109% with MDA-MB-468.
As to `CO[C@@H]1[C@H](N(C)C(=O)c2ccccc2)C[C@H]2O[C@]1(C)n1c3ccccc3c3c4c(c5c6ccccc6n2c5c31)C(=O)NC4` [Midostaurin] (10000 nM), the normalised response amounted to 41.7% in the experiment on BT-474; 4.02% in the experiment on BT-549; 76% with CAL-85-1 [1]; 24.9% in the experiment on MCF-10A; 68.8% in the experiment with MDA-MB-436; 29.4% in the experiment on MDA-MB-468.
For `Cc1cc(Nc2nc(N[C@@H](C)c3ncc(F)cn3)ncc2Cl)[nH]n1` [AZD1480] (1000 nM), the normalised response was 82.5% in the experiment with BT-474; 82.1% in the experiment with BT-549; 96% with CAL-85-1 [1]; 89.5% in the experiment on MCF-10A; 91.6% in the experiment on MDA-MB-436; 84.6% with MDA-MB-468.
Take `CC(=O)[C@]1(O)Cc2c(O)c3c(c(O)c2[C@@H](O[C@H]2C[C@H](N)[C@H](O)[C@H](C)O2)C1)C(=O)c1ccccc1C3=O` [Idarubicin] (1000 nM): the normalised response in the experiment on BT-474 came out at 16.6%; in the experiment with BT-549, 6.26%; in the experiment on CAL-85-1 [1], 3.35%; in the experiment on MCF-10A, 27.3%; in the experiment with MDA-MB-436, 20.6%; with MDA-MB-468, 5.57%.
Turning to `CCNC(=O)c1noc(-c2cc(C(C)C)c(O)cc2O)c1-c1ccc(CN2CCOCC2)cc1` [NVP-AUY922] (1000 nM), the normalised response is 25.6% in the experiment on BT-474; 39.8% with BT-549; 21% with CAL-85-1 [1]; 16.7% in the experiment with MCF-10A; 50.9% in the experiment on MDA-MB-436; 22.6% in the experiment with MDA-MB-468.
